{
  "source": "patent US9534008B2",
  "about": "“Small molecule compounds that control plant- and insect-pathogenic nematodes” (California Institute of Technology, priority 2011, dated 2017)",
  "key": {"P. redivivus females": {"tested_on": "P. redivivus females", "experiment": "Retention assay, P. redivivus females", "conditions": "in vivo", "protocol": "OP50 E. coli was grown on a standard 5 cm agar plate (made with standard Nematode Growth Medium). The bacterial lawn was 16 mm in diameter and was grown overnight at 20° C. before being used in trials. Two 4 mm spots (0.6 μL) were placed on opposite sides of the bacterial lawn (using a transparent template to guide spot placement), and several minutes elapsed for the liquid to settle in before placing nematodes down on the assay. Recording began immediately upon worm placement. […]\nNematodes were isolated by gender at the L4 stage the day before being used in trials as developed adults. […] Trials were recorded for 20 minutes, and frames were collected for analysis at 1 frame per second. […]\nA video camera attached to the microscope produced a digital video stream, which was then analyzed. The ratio of the time the average worm spent in each region of interest was calculated for every trial. […] Thus worm pixels were counted instead of whole worms, allowing fractions of a worm in the region of interest to be taken into account. It also eliminated the need for a shape-based worm identification algorithm, and allowed each frame to be analyzed independently. […] Thus, the ratio of worm-pixels to all pixels inside the region of interest can be calculated to produce the worm-occupancy ratio. […]"}, "C. elegans [1]": {"tested_on": "C. elegans", "experiment": "Ascaroside function (Table 12), C. elegans", "assay_type": "in vivo, Caenorhabditis elegans", "design": "key to Attract Females/Herm. / Promote Dauer Formation / Attract Males: A very strong result of affecting nematode behavior is designated in the table as “strong.”", "in_short": "(§1)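 Nematodes are exposed to single ascarosides or mixtures of them. Changes in behavior are then graded, and the label \"strong\" is reserved for a very strong effect.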"}, "C. elegans [2]": {"tested_on": "C. elegans", "experiment": "Aggregation assay", "assay_type": "in vivo", "protocol": "Aggregation behavior of worms was measured using assays reported in de Bono & Bargmann, Cell 94:679-89 (1998), which is hereby incorporated by reference in its entirety. Aggregation assays were conducted on standard NGM plates. Plates containing indole ascarosides were made by adding the indole ascaroside stock solution to the NGM media before they were poured onto the plates. These plates were dried at room temperature for 2 to 3 days. Control plates were treated similarly, except that ethanol solutions instead of icas solutions were added to the plates, corresponding to the amount of ethanol introduced via the icas solutions. Final ethanol concentrations of the plates were below 0.1% for all conditions. After drying, both control plates and plates containing indole ascarosides were seeded with 150 μl of an overnight culture of E. coli OP50 using a micropipette, and were allowed to dry for 2 days at room temperature. For “low worm density” experiments, 20 worms were placed onto the lawn and left at 20° C. for 3 hours. For “high worm density” experiments, approximately 120 worms were placed onto the bacterial lawn and left at 20° C. for 3 hours. Aggregation behavior was quantified as the number of animals that were in touch with two or more animals at greater than 50% of their body length."}, "Panagrellus redivivus": {"tested_on": "Panagrellus redivivus", "experiment": "Ascaroside function (Table 12), Panagrellus redivivus", "assay_type": "in vivo", "in_short": "as §1"}, "S. feltiae": {"tested_on": "S. feltiae", "experiment": "Ascaroside function (Table 12), S. feltiae", "assay_type": "in vivo, Steinernema feltiae", "protocol": "Various ascarosides and ascaroside blends were administered to various nematodes described below (Table 12). […] A very strong result of affecting nematode behavior is designated in the table as “strong.”"}, "C. elegans [3]": {"tested_on": "C. elegans", "conditions": "in vivo; cited from earlier work"}, "[4]": {"tested_on": "C. elegans hermaphrodites and males", "experiment": "Spot attraction assay", "assay_type": "in vivo", "protocol": "The spot attraction assays were conducted according to a previously reported method (Pungaliya et al., PNAS 106:7708-13 (2009); Srinivasan et al., Nature 454:1115-18 (2008), which are hereby incorporated by reference in their entirety). For both C. elegans hermaphrodites and males, 50-60 worms were harvested daily at the fourth larval stage (L4) and stored segregatedly by sex at 20° C. overnight, to be used as young adults the following day. For the competition experiments, two conditions were used: 120 nM ascr#3 and 10 nM icas#3 (Condition 1), or 12 μM ascr#3 and 1 μM icas#3 (Condition 2) in water containing 10% ethanol. Aliquots were stored at −20° C. in 20 μL tubes. 10% ethanol in water was used as control.\nAttraction assays with hbas#3 were conducted as previously reported (Srinivasan et al., Nature 454:1115-18 (2008); Pungaliya et al., Proc. Natl. Acad. Sci. U.S.A. 106:7708-13 (2009), which are hereby incorporated by reference in their entirety). For the attraction assays, 50-60 hermaphrodite worms were harvested daily at the early fourth larval stage (L4) and stored at 20° C. overnight to be used as young adults the following day. Hbas#3 was dissolved in water containing 10% ethanol. Aliquots were stored at −20° C. in 20 μL tubes. 10% ethanol in water was used as control."}, "C. elegans [5]": {"tested_on": "C. elegans", "conditions": "in vivo; cited from earlier work", "remark": "listed apart in the source"}},
  "note": "Entries after “also recorded” stand apart in the source; their conditions may differ.",
  "data": [
    {"smiles": "C[C@H](CCC(=O)O)O[C@@H]1O[C@@H](C)[C@H](OC(=O)c2c[nH]c3ccccc23)C[C@H]1O", "note": "[icas#9]", "values": [
      {"measurement": "response of P. redivivus females", "setting": "P. redivivus females", "result": "repealed"},
      {"measurement": "Attract Females/Herm.", "setting": "C. elegans [1]", "result": "([strong])"},
      {"measurement": "Promote Dauer Formation", "setting": "C. elegans [1]", "result": "icas#9"},
      {"measurement": "active concentration window (hermaphrodite attraction and aggregation)", "setting": "C. elegans [2]; in vivo", "result": "femtomolar to picomolar; also recorded: fM-pM"},
      {"measurement": "aggregation of solitary and social hermaphrodites", "setting": "C. elegans [2]; low worm density (20 worms per 5 cm plate)", "result": "increased aggregation"},
      {"measurement": "Repel Females/Herm.", "setting": "Panagrellus redivivus", "result": "icas#9"},
      {"measurement": "Dispersal (of dauer larvae, infectious juveniles)", "setting": "S. feltiae", "result": "icas#9"},
      {"measurement": "dauer-inducing activity", "setting": "C. elegans [3]", "result": "moderate; also recorded: promote dauer entry"},
      {"measurement": "shape of dauer response curve", "setting": "C. elegans [3]", "result": "bell-shaped"},
      {"measurement": "attraction of both C. elegans sexes", "setting": "[4]; high concentrations, 1 μmol, N2 hermaphrodites and him-5 males", "result": "attractive; also recorded: attracted"},
      {"measurement": "attraction of males", "setting": "[4]; low concentrations, males", "result": "but not males"},
      {"measurement": "aggregation in C. elegans", "setting": "C. elegans [5]", "result": "aggregating stimulant"}
    ]}
  ]
}
